Assay results: ChEMBL document CHEMBL1130774, “Pyrazoles, 1,2,4-triazoles, and tetrazoles as surrogates for cis-amide bonds in boronate ester thrombin inhibitors” (Bioorg Med Chem Lett, 1998)
pKi: −log10 of the molar value.

Experiments:
Coagulation factor VII = molecular target: T1, Coagulation factor VII (Homo sapiens, UniProt P08709); assay: Inhibition against human Coagulation factor VII
T1 sequence (P08709 whole entry): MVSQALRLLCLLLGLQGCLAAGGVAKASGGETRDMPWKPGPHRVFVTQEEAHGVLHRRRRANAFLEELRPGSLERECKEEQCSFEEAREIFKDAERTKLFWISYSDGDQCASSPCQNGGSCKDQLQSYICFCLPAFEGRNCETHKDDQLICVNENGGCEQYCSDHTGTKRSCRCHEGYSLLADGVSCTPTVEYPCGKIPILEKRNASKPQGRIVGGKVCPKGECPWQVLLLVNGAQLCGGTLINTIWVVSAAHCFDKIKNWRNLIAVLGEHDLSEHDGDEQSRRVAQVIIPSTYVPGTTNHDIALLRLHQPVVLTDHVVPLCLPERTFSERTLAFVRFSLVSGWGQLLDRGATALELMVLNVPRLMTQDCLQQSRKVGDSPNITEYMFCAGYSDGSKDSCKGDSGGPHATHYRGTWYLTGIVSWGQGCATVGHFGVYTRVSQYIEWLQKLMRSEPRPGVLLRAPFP

Prothrombin [1] = molecular target: T2, Prothrombin (Homo sapiens, UniProt P00734); assay: Inhibition against human thrombin
Prothrombin [2] = molecular target: T2, Prothrombin; assay: Concentration necessary to double the time required for clot formation induced by the addition of 4 NIH u/mL(final concentration) bovine thrombin.; type: functional
Coagulation factor X = Coagulation factor X (Homo sapiens, UniProt P00742); assay: Inhibition against human coagulation factor Xa
[3] = Compound was tested for inhibition against Coagulation factor I
Serine protease 1 = Serine protease 1 (Homo sapiens, UniProt P07477); assay: Inhibition of trypsin
[4] = Compound was tested for inhibition against tissue factor.
[5] = (§1) Concentration necessary to double the time required for clot formation induced by the addition of 4 NIH u/mL (final concentration) bovine thrombin.; type: functional
Prothrombin [6] = molecular target: T2, Prothrombin; assay: as §1; type: functional

Sequence of Coagulation factor X (P00742 41-179 limits assumed): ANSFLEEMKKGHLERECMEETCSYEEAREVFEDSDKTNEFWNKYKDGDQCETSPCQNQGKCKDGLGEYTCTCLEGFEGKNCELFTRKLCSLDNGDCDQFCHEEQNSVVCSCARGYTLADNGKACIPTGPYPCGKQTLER
Sequence of Coagulation factor X (P00742 235-488 limits assumed): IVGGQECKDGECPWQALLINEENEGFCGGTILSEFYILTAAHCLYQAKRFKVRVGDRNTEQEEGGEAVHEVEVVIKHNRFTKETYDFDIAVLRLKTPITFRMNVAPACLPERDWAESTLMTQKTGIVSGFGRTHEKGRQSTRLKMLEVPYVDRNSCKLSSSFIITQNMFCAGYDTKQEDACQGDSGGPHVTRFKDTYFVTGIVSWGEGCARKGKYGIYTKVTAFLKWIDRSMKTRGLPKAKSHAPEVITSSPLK
Sequence of Serine protease 1 (P07477 whole entry): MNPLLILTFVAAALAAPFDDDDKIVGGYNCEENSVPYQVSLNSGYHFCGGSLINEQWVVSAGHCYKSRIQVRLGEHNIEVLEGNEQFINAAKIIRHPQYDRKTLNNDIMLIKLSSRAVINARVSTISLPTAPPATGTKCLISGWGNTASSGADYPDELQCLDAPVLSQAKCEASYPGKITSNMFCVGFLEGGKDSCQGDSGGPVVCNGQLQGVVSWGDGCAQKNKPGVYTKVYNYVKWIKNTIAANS

pKi (Coagulation factor VII)	pKi (Prothrombin [1])	pKi (Prothrombin [2])	pKi (Coagulation factor X)	pKi [3]	pKi (Serine protease 1)	pKi [4]	pKi [5]	pKi (Prothrombin [6])	Compound
5.15	8.07	5.22	< 5.22	–	–	–	–	–	Cc1nc(Cc2ccccc2)n(CC(=O)N[C@@H](CCCCN)B2O[C@@H]3C[C@@H]4C[C@@H](C4(C)C)[C@]3(C)O2)n1
–	7.44	–	–	–	–	–	–	–	CC1(C)[C@@H]2C[C@H]3OB([C@H](CCCCN)NC(=O)Cn4ncnc4CCc4ccccc4)O[C@@]3(C)[C@H]1C2
–	8.34	–	< 5.22	4.89	7.46	–	–	–	CC1(C)[C@@H]2C[C@H]3OB([C@H](CCCCN)NC(=O)Cn4nc(CC#N)cc4CCc4ccccc4)O[C@@]3(C)[C@H]1C2
< 5.52	8.59	–	< 5.22	5.17	7.92	–	–	–	CC1(C)[C@@H]2C[C@H]3OB([C@H](CCCCN)NC(=O)Cn4nc(CC#N)nc4CCc4ccccc4)O[C@@]3(C)[C@H]1C2
< 5.52	6.64	–	< 5.22	–	8.15	< 5.00	–	–	CC1(C)[C@@H]2C[C@H]3OB([C@H](CCCCN)NC(=O)Cn4nc(CCC(=O)O)nc4Cc4ccccc4)O[C@@]3(C)[C@H]1C2
5.62	7.14	–	< 5.22	–	8.64	–	–	–	CCCc1nc(Cc2ccccc2)n(CC(=O)N[C@@H](CCCCN)B2O[C@@H]3C[C@@H]4C[C@@H](C4(C)C)[C@]3(C)O2)n1
< 4.85	5.77	–	< 5.22	–	–	–	–	–	CC1(C)[C@@H]2C[C@H]3OB([C@H](CCCCN)NC(=O)Cn4nc(CC(=O)O)nc4Cc4ccccc4)O[C@@]3(C)[C@H]1C2
4.85	7.07	–	< 5.22	–	–	–	–	–	COC(=O)Cc1nc(Cc2ccccc2)n(CC(=O)N[C@@H](CCCCN)B2O[C@@H]3C[C@@H]4C[C@@H](C4(C)C)[C@]3(C)O2)n1
5.68	7.33	–	5.22	–	8.32	5.44	–	–	C[S+]([O-])Cc1nc(Cc2ccccc2)n(CC(=O)N[C@@H](CCCCN)B2O[C@@H]3C[C@@H]4C[C@@H](C4(C)C)[C@]3(C)O2)n1 (some centres not stated)
–	< 7.38	–	–	–	–	–	–	–	CC1(C)[C@@H]2C[C@H]3OB([C@H](CCCCN)NC(=O)Cn4ncnc4CCCc4ccccc4)O[C@@]3(C)[C@H]1C2
5.72	7.96	–	< 5.22	–	8.68	5.57	–	–	CC1(C)[C@@H]2C[C@H]3OB([C@H](CCCCN)NC(=O)Cn4nc(CS(C)(=O)=O)nc4Cc4ccccc4)O[C@@]3(C)[C@H]1C2
–	7.51	–	–	–	–	–	5.60	–	CC1(C)[C@@H]2C[C@H]3OB([C@H](CCCCN)NC(=O)Cn4ncnc4Cc4ccccc4)O[C@@]3(C)[C@H]1C2
–	7.48	–	–	–	–	–	–	–	CC1(C)[C@@H]2C[C@H]3OB([C@H](CCCCN)NC(=O)Cn4nnnc4CCc4ccccc4)O[C@@]3(C)[C@H]1C2
5.38	8.46	–	< 5.22	–	8.25	–	–	6.30	CC1(C)[C@@H]2C[C@H]3OB([C@H](CCCCN)NC(=O)Cn4nc(CC#N)nc4Cc4ccccc4)O[C@@]3(C)[C@H]1C2
–	6.76	–	–	–	–	–	–	–	CC1(C)[C@@H]2C[C@H]3OB([C@H](CCCCN)NC(=O)Cn4nc(-c5ccccc5)nc4Cc4ccccc4)O[C@@]3(C)[C@H]1C2
5.11	7.08	–	< 5.22	–	–	–	–	–	CC1(C)[C@@H]2C[C@H]3OB([C@H](CCCCN)NC(=O)Cn4nc(CO)nc4Cc4ccccc4)O[C@@]3(C)[C@H]1C2
–	6.46	–	–	–	–	–	–	–	CC1(C)[C@@H]2C[C@H]3OB([C@H](CCCCN)NC(=O)Cn4nc(Cc5nn[nH]n5)nc4Cc4ccccc4)O[C@@]3(C)[C@H]1C2
5.60	7.19	5.35	< 5.22	–	8.72	–	–	–	CSCc1nc(Cc2ccccc2)n(CC(=O)N[C@@H](CCCCN)B2O[C@@H]3C[C@@H]4C[C@@H](C4(C)C)[C@]3(C)O2)n1
5.66	7.48	–	< 5.22	–	8.18	5.57	–	–	CC1(C)[C@@H]2C[C@H]3OB([C@H](CCCCN)NC(=O)Cn4nc(CNC=O)nc4Cc4ccccc4)O[C@@]3(C)[C@H]1C2

Further lines, the compound ahead of its results:

Compound	pKi (Coagulation factor VII)	pKi (Prothrombin [1])	pKi (Prothrombin [2])	pKi (Coagulation factor X)	pKi [3]	pKi (Serine protease 1)	pKi [4]	pKi [5]	pKi (Prothrombin [6])
CC1(C)[C@@H]2C[C@H]3OB([C@H](CCCCN)NC(=O)Cn4nc(COCc5ccccc5)nc4Cc4ccccc4)O[C@@]3(C)[C@H]1C2	5.82	8.06	5.89	5.80	–	–	–	–	–
CC1(C)[C@@H]2C[C@H]3OB([C@H](CCCCN)NC(=O)Cn4nc(-c5cccc(N)c5)nc4Cc4ccccc4)O[C@@]3(C)[C@H]1C2	5.85	6.82	–	< 5.22	–	8.38	–	–	–
CC1(C)[C@@H]2C[C@H]3OB([C@H](CCCCN)NC(=O)Cn4nc(CC#N)nc4Cc4cccc([N+](=O)[O-])c4)O[C@@]3(C)[C@H]1C2	< 5.52	8.74	–	< 5.22	5.72	7.64	–	–	–
CC(C)(C)OC(=O)CCc1nc(Cc2ccccc2)n(CC(=O)N[C@@H](CCCCN)B2O[C@@H]3C[C@@H]4C[C@@H](C4(C)C)[C@]3(C)O2)n1	< 5.52	8.26	–	6.12	–	8.85	6.17	–	–
CC(C)C(=O)NCc1nc(Cc2ccccc2)n(CC(=O)N[C@@H](CCCCN)B2O[C@@H]3C[C@@H]4C[C@@H](C4(C)C)[C@]3(C)O2)n1	< 5.52	6.80	–	< 5.22	–	8.02	–	–	–
CC(C)(C)OC(=O)/C=C/c1nc(Cc2ccccc2)n(CC(=O)N[C@@H](CCCCN)B2O[C@@H]3C[C@@H]4C[C@@H](C4(C)C)[C@]3(C)O2)n1	5.57	6.82	–	< 5.22	–	7.44	5.55	–	–
CC1(C)[C@@H]2C[C@H]3OB([C@H](CCCCN)NC(=O)Cn4nc(-c5cccc([N+](=O)[O-])c5)nc4Cc4ccccc4)O[C@@]3(C)[C@H]1C2	5.59	7.07	–	5.38	–	–	–	–	–
CC1(C)[C@@H]2C[C@H]3OB([C@H](CCCCN)NC(=O)Cn4nc(Cc5ccccc5)nc4Cc4ccccc4)O[C@@]3(C)[C@H]1C2	5.40	7.39	–	< 5.22	–	–	–	–	–
CC(C)(C)CC(=O)NCc1nc(Cc2ccccc2)n(CC(=O)N[C@@H](CCCCN)B2O[C@@H]3C[C@@H]4C[C@@H](C4(C)C)[C@]3(C)O2)n1	< 5.52	7.48	–	5.37	–	8.57	5.83	–	–
CC1(C)[C@@H]2C[C@H]3OB([C@H](CCCCN)NC(=O)Cn4nc(CNS(=O)(=O)C(F)(F)F)nc4Cc4ccccc4)O[C@@]3(C)[C@H]1C2	< 5.52	6.68	–	< 5.22	–	< 5.92	5.43	–	–
CN(CC(=O)N[C@@H](CCCSC(=N)N)B(O)O)C(=O)CCc1ccccc1	–	9.52	–	–	–	–	–	–	–
CC1(C)[C@@H]2C[C@H]3OB([C@H](CCCCN)NC(=O)Cn4nc(CC#N)nc4Cc4ccccc4[N+](=O)[O-])O[C@@]3(C)[C@H]1C2	5.52	9.10	–	5.31	5.70	8.08	–	–	–
